The structures appear in SMILES notation.

The record followed here is ChEMBL document CHEMBL2385023, “Negative allosteric modulators of metabotropic glutamate receptor subtype” (ACS Med Chem Lett, 2013).

One series has as its system Mus musculus. Put plainly: Anxiolytic activity in ip dosed Harlan CD1 mouse assessed as inhibition of marble burying activity administered 15 to 30 mins prior to test. Format: functional.
A short description of series [1]: Ratio of drug level in brain to plasma in mouse at 10 mg/kg, po. Format: ADME, organism-based. More on the design: dose 10 mg/kg, route oral. The conditions noted are these: read-out: BPR.
A short description of series [2]: Oral bioavailability in cynomolgus monkey. The conditions noted are these: in vivo. Format: ADME, organism-based, Macaca fascicularis.
The nature of series [3]: Oral bioavailability in rat. Format: ADME, organism-based. The settings on record: in vivo.
Series [4] in a line: Plasma protein binding in human. The series is classed as ADME, cell-free. The settings on record: read-out: PPB (converted).

For `Cc1cc(Oc2cnc(C)nc2)cc(C(=O)Nc2ccc(F)cn2)n1`, the ED with Mus musculus came to 10 mg/kg.
A word on the bioavailability: it is dose-corrected exposure relative to a reference, in per cent. `Cc1cc(Oc2cncc(F)c2)cc(C(=O)Nc2ccc(F)cn2)n1`: in series [1], the Kp amounted to 4.7. The bioavailability in series [2] stood at 25%; in series [3], 67%. Also, the ED in the series with Mus musculus is 30 mg/kg.
As for `Cc1cc(Oc2cncnc2)cc(C(=O)Nc2ccc(F)cn2)n1`, the Kp in series [1] was determined as 5.9. For the same molecule, the bioavailability in series [2] was 42%; in series [3], 30%. Moreover, in series [4], the fraction unbound is 0.086. Further, in the series with Mus musculus, the ED came to 10 mg/kg.
Take `CCc1cccc(NC(=O)c2cc(Oc3cncnc3)cc(C)n2)n1`: the bioavailability in series [3] stood at 39%. Besides, the ED with Mus musculus amounted to 10 mg/kg.
